# Legend:
# [1] = tested on: chick chondrocytes; experiment: Continuous 48 hr exposure of chick chondrocytes in culture; type: cell-based; settings: for smurf2 expression: 48 hr chronic, continuous exposure, chick chondrocytes
# Method: FIG. 3C is a histogram showing levels of Smurf2 mRNA relative to control in chick sternal chondrocytes cultured with TGFβ, BMP-2, PTHrP, or dibutyryl cyclic adenosine monophosphate (dbcAMP) following a chronic, 48 hour exposure.
# The Western blots show pSmad3 and pSmad2 levels in chick sternal chondrocytes cultured in the presence or absence of TGFβ, PTHrP and/or a Smurf2 RNAi (Sf2 RNAi) for 48 hours.
# Without meaning to be limited by theory, this may have been due to down-regulation of TGF-β signaling by smurf2, allowing BMP signals to drive hypertrophy.
# [2] = tested on: white zone meniscal tears; experiment: Rabbit white zone meniscal tear, treatment after surgery; type: in vivo; settings: treated for 4 weeks after surgery, versus saline
# Method: FIGS. 12A and 12B show daily treatment with teriparatide for 4 weeks following meniscal surgery results in preliminary meniscal healing. […] Rabbits underwent surgery to produce white zone meniscal tears. The rabbits were treated with either saline (FIG. 12A) or teriparatide (FIG. 12B) after surgery for 4 weeks.
# [3] = tested on: cartilage; experiment: Delayed treatment of osteoarthritic mice 8 weeks after joint surgery; type: in vivo; settings: daily injections for 4 weeks after 8 week delay post surgery
# Method: Delayed treatment with teriparatide or PTH reduces the amount of cartilage loss as compared to treatment with saline. Mice were allowed to develop osteoarthritis for 8 weeks following joint surgery, as described above. After 8 weeks, the mice were treated for 4 weeks with daily injections of teriparatide or PTH, a delayed treatment regimen.
# [4] = tested on: articular cartilage in mice; experiment: Murine knee injury model (severe injury), daily injection, Alcian Blue histology; type: in vivo
# Method: Mice were anesthetized and an arthrotomy of the knee was performed. The medial collateral ligament was surgically transected, and the anterior horn of the medial meniscus was surgically removed to create a mild knee injury. For the severe injury group, the anterior cruciate ligament was also transected, causing severe joint instability in combination with the mild meniscal and medial collateral ligament injuries. The knee was surgically closed and animals were allowed free movement subsequently. One group with the severe combined injuries, as the most difficult case for cartilage protection, was treated daily with injections of teriparatide. After sacrifice at appropriate time points, the knee joints were removed, decalcified, embedded in paraffin, and 4-micron thick sections were stained with Alcian Blue to produce photomicrographs as shown in FIG. 4.
# [5] = tested on: articular cartilage; experiment: Immediate treatment after meniscus/ligament injury (osteoarthritis model); type: in vivo, mice; settings: for proteoglycan in the articular cartilage (Alcian Blue staining intensity): daily injection for 4 weeks starting immediately after surgery; for cartilage loss (histomorphometric joint cartilage area): daily injection for 12 weeks starting immediately after surgery
# Method: Treatment with teriparatide or PTH reduces the amount of cartilage loss as compared to treatment with saline. Mice exposed to sham surgery or meniscus/ligament injury, a model for osteoarthritis, were treated, starting immediately after surgery, with saline, teriparatide, or PTH for 4 weeks. […] Mice exposed to sham surgery or meniscus/ligament injury were treated, starting immediately after surgery, with saline, teriparatide, or PTH for 12 weeks.
# [6] = tested on: Rabbit meniscal cells; experiment: Cultured rabbit meniscal cells, mRNA expression; type: cell-based
# Method: Rabbit meniscal cells were isolated from rabbit menisci and cultured. Cultured meniscal cells were treated with PTH for 1 or 3 days.
Molecule,smurf2 expression [1],"meniscal healing (defect, cellularity, proteoglycan content) [2]",cartilage loss and regeneration versus saline control [3],"development of cartilage degeneration and osteoarthritis ([4]; severe injury (ACL and MCL transection plus medial menisectomy), 4, 8, 12 weeks)",cellular repair activities and hypertrophy or maturational changes ([4]; severe knee injury),proteoglycan in the articular cartilage (Alcian Blue staining intensity) [5],cartilage loss (histomorphometric joint cartilage area) [5],"pSmad2 and pSmad3 levels (Western blot) ([1]; chick sternal chondrocytes, 48 hours, reversed by Smurf2 siRNA)",cyclin D1 mRNA ([6]; after 3 days of treatment),type I collagen mRNA ([6]; treated for 1 or 3 days)
"CCCC(=O)Nc1ncnc2c1ncn2[C@@H]1O[C@@H]2COP(=O)(O)O[C@H]2[C@H]1OC(=O)CCC [dbcAMP, dibutyryl cyclic adenosine monophosphate]",stimulated smurf2 expression,,,,,,,,,
CC[C@H](C)[C@H](NC(=O)[C@H](CCC(=O)O)NC(=O)[C@H](CO)NC(=O)[C@@H](NC(=O)[C@@H](N)CO)C(C)C)C(=O)N[C@@H](CCC(N)=O)C(=O)N[C@@H](CC(C)C)C(=O)N[C@@H](CCSC)C(=O)N[C@@H](Cc1cnc[nH]1)C(=O)N[C@@H](CC(N)=O)C(=O)N[C@@H](CC(C)C)C(=O)NCC(=O)N[C@@H](CCCCN)C(=O)N[C@@H](Cc1cnc[nH]1)C(=O)N[C@@H](CC(C)C)C(=O)N[C@@H](CC(N)=O)C(=O)N[C@@H](CO)C(=O)N[C@@H](CCSC)C(=O)N[C@@H](CCC(=O)O)C(=O)N[C@@H](CCCN=C(N)N)C(=O)N[C@H](C(=O)N[C@@H](CCC(=O)O)C(=O)N[C@@H](Cc1c[nH]c2ccccc12)C(=O)N[C@@H](CC(C)C)C(=O)N[C@@H](CCCN=C(N)N)C(=O)N[C@@H](CCCCN)C(=O)N[C@@H](CCCCN)C(=O)N[C@@H](CC(C)C)C(=O)N[C@@H](CCC(N)=O)C(=O)N[C@@H](CC(=O)O)C(=O)N[C@H](C(=O)N[C@@H](Cc1cnc[nH]1)C(=O)N[C@@H](CC(N)=O)C(=O)N[C@@H](Cc1ccccc1)C(=O)O)C(C)C)C(C)C [teriparatide],,narrowing of the defect with increased cellularlity and proteoglycan content,reduction in the loss of cartilage and regeneration of lost cartilage,dramatically retards the development of cartilage degeneration and osteoarthritis,stimulated cellular repair activities with suppression of hypertrophy or maturational changes,upregulation of proteoglycan,reduction in cartilage loss,,,
parathyroid hormone-related peptide [PTHrP],stimulated smurf2 expression,,,,,,,reduction of pSmad2 and pSmad3,,
"parathyroid hormone (protein, listed as Homo sapiens, Parathyroid Hormone, Parathyroid hormone, ligand of the PTH/PTHrP receptor (PTHR1)) MIPAKDMAKVMIVMLAICFLTKSDGKSVKKRSVSEIQLMHNLGKHLNSMERVEWLRKKLQDVHNFVALGAPLAPRDAGSQRPRKKEDNVLVESHEKSLGEADKADVNVLTKAKSQ",,,reduction in the loss of cartilage and regeneration of lost cartilage,,,upregulation of proteoglycan,reduction in cartilage loss,,upregulation of mRNA for cyclin D1,upregulation of mRNA for type I collagen
